# In US20040072738A1, “Analogues of thiocoraline and be-22179” (priority 2000, published 2004):
# Bridge positions count the residues as written; N and C are the ends. Square brackets hold non-standard residues; d marks the D form. Peptide text beside a SMILES is read from it. I, II: the chains in the order shown. * marks the point of attachment. Quinaldoyl(3-OH,6-OMe) = COc1ccc2nc(C(=O)*)c(O)cc2c1; Quinoxaline2carbonyl = O=C(c1cnc2ccccc2n1)*; Quinaldoyl(3-OH) = O=C(c1nc2ccccc2cc1O)*; Fmoc = O=C(OCC1c2ccccc2-c2ccccc21)*; Quinaldoyl = O=C(c1ccc2ccccc2n1)*; NMeC = CN[C@@H](CS)C(=O)O; Cbz = O=C(OCc1ccccc1)*; NMeDha = C=C(NC)C(=O)O
# What was measured:
# [1] = solubility in aqueous buffer; assay type: physicochemical
# [2] = cytotoxic activity in the L1210 assays
# L1210 cell line = test: cytotoxic activity in the L1210 assays; details: L1210 assays
# supercoiled ΦX174 DNA = test: unwinding and rewinding of negatively supercoiled DNA, agarose gel electrophoresis; assay type: biochemical
# From the text: Confirmation that thiocoraline and BE-22179 bind to DNA with bisintercalation was derived from their ability to induce the unwinding of negatively supercoiled DNA. This was established by their ability to gradually decrease the agarose gel electrophoresis mobility of supercoiled ΦX174 DNA (unwinding) at increasing concentrations followed by a return to normal mobility (rewinding) at even higher concentrations. Under the conditions employed, echinomycin unwound ΦX174 DNA at a 0.044 agent/base pair ratio (FIG. 11 and FIG. 12). Thiocoraline completely unwound ΦX174 DNA at a higher 0.11 agent/base pair ratio, whereas BE-22179 required even higher concentrations producing the unwinding at an agent/base pair ratio of 1.1. […] Thus, the distinctions in 1 and 2 and echinomycin detected here appear to be related to the nature of the cyclic depsipeptide and not the structure of the chromophore.
# FIG. 8 is a table of comparative DNA binding properties. ^aCalf thymus DNA, KB=apparent binding constant determined by fluorescence quenching. The value in paren-theses is the agent/base pair ratio at saturated high-affinity binding and may be considered a measure of the selectivity of binding. ^bAgent/base pair ratio required to unwind negatively supercoiled FX174 DNA (form I to form II gel mobility, 0.9% agarose gel). ^cAgent/base pair ratio required to induce complete rewinding or positive super-coiling of FX174 DNA (form II to form I gel mobility, 0.9% agarose gel). ^dBinding constant established by footprinting at a 5′-CCGC site (FIG. 9).
# (A) Lane 1, untreated supercoiled FX174 DNA, 95% form 1 and 5% form II; lanes 2-8, thiocoraline-treated FX174 DNA; lanes 9-14, echinomycin-treated FX174 DNA. The [agent]-to-[base pair] ratios were 0.022 (lanes 2 and 9), 0.033 (lanes 3 and 10), 0.044 (lanes 4 and 11), 0.066 (lanes 5 and 12), 0.11 (lanes 6 and 13), 0.22 (lanes 7 and 14), and 0.44 (lane 8). (B) Lane 1, untreated supercoiled FX174 DNA, lanes 2-12, BE-22179-treated FX174 DNA. The [agent]-to-[base pair] ratios were 0.022, (lane 2), 0.033 (lane 3), 0.044 (lane 4), 0.066 (lane 5), 0.11 (lane 6), 0.22 (lane 7), and 0.33 (lane 8), 0.44 (lane 9), 0.66 (lane 10), 1.1 (lane 11), and 2.2 (lane 12). (C) Lane 1, untreated supercoiled FX174 DNA, 95% form 1 and 5% form II; lanes 2-8, thiocoraline analogue (27)-treated FX174 DNA. The [agent]-to-[base pair] ratios were 0.022 (lane 2), 0.033 (lane 3), 0.044 (lane 4), 0.066 (lane 5), 0.11 (lane 6), 0.22 (lane 7), and 0.44 (lane 8).
# [3] = target: HIV-1 reverse transcriptase (Human immunodeficiency virus type 1 group M subtype B, UniProt P03366); test: inhibition of HIV-1 reverse transcriptase; assay type: biochemical
compound,measurement,setting,value
"C=C1C(=O)SC[C@@H](NC(=O)c2nc3ccccc3cc2O)C(=O)NCC(=O)N(C)[C@H]2CSSC[C@@H](C(=O)N1C)N(C)C(=O)CNC(=O)[C@H](NC(=O)c1nc3ccccc3cc1O)CSC(=O)C(=C)N(C)C2=O [BE-22179] (I: {Quinaldoyl(3-OH)}-[dC]G[NMeC][NMeDha] / II: {Quinaldoyl(3-OH)}-[dC]G[NMeC][NMeDha]; thioester I:1-II:C, I:C-II:1; disulfide I:3-II:3)",solubility,"[1]; Tris-HCl pH 7.4, 75 mM NaCl, read-out: agent concentrations where the compounds are soluble",1 to 10 µM
same,IC50,[2],0.4 nM
"CSC[C@H]1C(=O)SC[C@@H](NC(=O)OCc2ccccc2)C(=O)NCC(=O)N(C)[C@H]2CSSC[C@@H](C(=O)N1C)N(C)C(=O)CNC(=O)[C@H](NC(=O)OCc1ccccc1)CSC(=O)[C@H](CSC)N(C)C2=O [Compound 23, [N-Cbz-D-Cys-Gly-NMe-L--Cys-NMe-L--Cys(Me)]2 (Cysteine Thiol) Dilactone] (I: Cbz-[dC]G[NMeC][NMeC](Me) / II: Cbz-[dC]G[NMeC][NMeC](Me); thioester I:1-II:C, I:C-II:1; disulfide I:3-II:3)",cytotoxic activity (in words),L1210 cell line,inactive
"CSC[C@H]1C(=O)SC[C@@H](NC(=O)c2ccc3ccccc3n2)C(=O)NCC(=O)N(C)[C@H]2CSSC[C@@H](C(=O)N1C)N(C)C(=O)CNC(=O)[C@H](NC(=O)c1ccc3ccccc3n1)CSC(=O)[C@H](CSC)N(C)C2=O [Compound 26, [N-(2-Quinoline Carboxyl)-D-Cys-Gly-NMe-L--Cys-NMe-L--Cys(Me)]2 (Cysteine Thiol) Dilactone] (I: Quinaldoyl-[dC]G[NMeC][NMeC](Me) / II: Quinaldoyl-[dC]G[NMeC][NMeC](Me); thioester I:1-II:C, I:C-II:1; disulfide I:3-II:3)",cytotoxic activity (in words),L1210 cell line,less potent cytotoxic activity
"CSC[C@H]1C(=O)SC[C@@H](NC(=O)c2cnc3ccccc3n2)C(=O)NCC(=O)N(C)[C@H]2CSSC[C@@H](C(=O)N1C)N(C)C(=O)CNC(=O)[C@H](NC(=O)c1cnc3ccccc3n1)CSC(=O)[C@H](CSC)N(C)C2=O [Compound 27, [N-(2-Quinoxaline carboxyl)-D-Cys-Gly-NMe-L--Cys-NMe-L--CYS(Me)]2 (Cysteine Thiol) Dilactone] (I: Quinoxaline2carbonyl-[dC]G[NMeC][NMeC](Me) / II: Quinoxaline2carbonyl-[dC]G[NMeC][NMeC](Me); thioester I:1-II:C, I:C-II:1; disulfide I:3-II:3)",cytotoxic activity (in words),L1210 cell line,less potent cytotoxic activity
"COc1ccc2nc(C(=O)N[C@@H]3CSC(=O)[C@H](CSC)N(C)C(=O)[C@@H]4CSSC[C@@H](C(=O)N(C)[C@@H](CSC)C(=O)SC[C@@H](NC(=O)c5nc6ccc(OC)cc6cc5O)C(=O)NCC(=O)N4C)N(C)C(=O)CNC3=O)c(O)cc2c1 [Compound 28, [N-(3-Hydroxy-6-methoxy-2-quinoline carboxyl)-D-Cys-Gly-NMe-L--CyS-NMe-L--Cys(Me)]2 (Cysteine Thiol) Dilactone] (I: {Quinaldoyl(3-OH,6-OMe)}-[dC]G[NMeC][NMeC](Me) / II: {Quinaldoyl(3-OH,6-OMe)}-[dC]G[NMeC][NMeC](Me); thioester I:1-II:C, I:C-II:1; disulfide I:3-II:3)",cytotoxic activity (in words),L1210 cell line,potent activity
"CSC[C@H]1C(=O)SC[C@@H](NC(=O)OCC2c3ccccc3-c3ccccc32)C(=O)NCC(=O)N(C)[C@H]2CSSC[C@@H](C(=O)N1C)N(C)C(=O)CNC(=O)[C@H](NC(=O)OCC1c3ccccc3-c3ccccc31)CSC(=O)[C@H](CSC)N(C)C2=O [Compound 32] (I: Fmoc-[dC]G[NMeC][NMeC](Me) / II: Fmoc-[dC]G[NMeC][NMeC](Me); thioester I:1-II:C, I:C-II:1; disulfide I:3-II:3)",cytotoxic activity (in words),L1210 cell line,inactive
"CS[C@H]1SC[C@H]2C(=O)N(C)[C@@H](C(C)C)C(=O)OC[C@@H](NC(=O)c3cnc4ccccc4n3)C(=O)N[C@@H](C)C(=O)N(C)[C@@H]1C(=O)N(C)[C@@H](C(C)C)C(=O)OC[C@@H](NC(=O)c1cnc3ccccc3n1)C(=O)N[C@@H](C)C(=O)N2C [echinomycin, reference compound]",agent/base pair ratio required to unwind supercoiled DNA,supercoiled ΦX174 DNA; form I to form II gel mobility,0.044 agent/base pair ratio
same,agent/base pair ratio for complete rewinding of supercoiled DNA,supercoiled ΦX174 DNA; form II to form I gel mobility,0.22 agent/base pair ratio
same,inhibition of HIV-1 reverse transcriptase (in words),[3],weak inhibitor
same,solubility (in words),[1],low solubility
